Data on one compound can be found in US20230241000A1, “GSK3 INHIBITOR-LOADED NANO FORMULATIONS AS A CANCER IMMUNOTHERAPEUTIC” (The Regents of the University of California, priority 2020, published 2023).

Data set [1] is described as follows: Safety analysis in MC38 mice (animal weight, blood chemistry, organ H&E histology). The class given is in vivo, C57BL/6 mice. As to conditions: serum at sacrifice. Here is the method: While there is sparse literature on the use of AZD1080 in animal studies, this agent had to be discontinued in a phase I clinical trial in humans due to nephrotoxicity (15).
The histology preparation and staining of tumor tissue and mouse organs was performed in the Pathology Core Facility of the UCLA Jonsson Comprehensive Cancer Center. Tissues were fixed in 10% neutral-buffered formalin for 24 hours, then gradually dehydrated in 25-75% ethanol solutions over 3 days. Tissues were embedded in paraffin, sectioned at 4 μm thickness, and stained by anti-CD8, anti-cleaved caspase 3, anti-perforin, anti-PD-1, or haemotoxylin and eosin (H&E). Slides were digitally scanned for analysis using Aperio ImageScope software (Leica Biosystems, Buffalo Grove, Ill.). Four fields of view were analyzed per tumor at 20× magnification, with all positively stained cells counted within the field and averaged across fields. The investigator was blinded with respect to the animal groups to avoid bias during counting. Fields of view were chosen to avoid the tumor periphery and processing artifacts.
At the time of sacrifice, blood was obtained by cardiac puncture from MC38 tumor growing animals and collected into Greiner Bio-One MiniCollect Capillary Blood collection system tubes. Tubes were centrifuged as per manufacturer's instructions to separate serum from blood cells. The serum was frozen at […] and subsequently used, to obtain a comprehensive serum chemistry panel, develop by IDEXX Laboratories (Westbrook, Me.), for use in the UCLA Division of Laboratory Animal Medicine (DLAM).

For data set [2] the following is noted: humans; literature (15); cited from earlier work.
A short description of data set [3]: Maximum tolerated dose study of free AZD1080. It counts as in vivo. The conditions noted are these: one-time tail vein injection, 5 to 25.3 mg/kg, weights recorded 14 days; listed as free AZD1080. Here is the method: Dotted lines represent thresholds for toxicity (−15%) and weight loss requiring euthanasia (20%). Body weight changes are relative to individual mouse initial weights. N=4 mice per group, error bars are SEM.
In order to establish a safe working concentration for murine experiments on AZD1080, we used a previously established dose of 5 mg/kg for the treatment of an Alzheimer's-like disease process in rats (29) for planning of a maximum tolerated dose assessment (FIG. 14). […] This prompted us to continue the use of the established dose of 5 mg/kg, for a total of three injections in our animal studies.
The maximum tolerated dose of AZD1080 was determined using a protocol from the National Cancer Institute (72). C57BL/6 mice were injected with AZD1080 solutions via tail vein (100 μL) and weights were recorded daily for 14 days. AZD1080 was solubilized in 30% PEG400, 0.5% Tween-80, 5% polyethylene, and 64.5% 1×PBS. The injected amounts of AZD1080 were 5, 7.5, 11.25, 16.87, or 25.31 mg/kg per mouse, n=4 mice per group.

The subject of a further data set is MC38 colon cancer. Nature of the data set: MC38 syngeneic colon cancer model, subcutaneous tumor growth. It counts as in vivo, C57BL/6 mice. Here is the method:
Treatment was repeated every three days for a total of three administrations. Mice were sacrificed four days after the final treatment. The study was executed as two separate experiments, using animal group sizes of n=6 and n=9, respectively. […] The first set of analyses was performed on the tumor volume growth curves (FIG. 5, panel A), impact on final tumor volumes (FIG. 5, panel B) and tumor weight (FIG. 5, panel C) at the time of sacrifice.
MC38 cells, stably transfected with a luciferase vector, were inoculated into the right flank of C57BL/6 mice, using 0.7×10^6 cells in 40% Matrigel 1×PBS solution. Tumors were allowed to grow to a size of ˜50 mm^3 prior to the initiation of treatment, approximately 14 days after initial inoculation. Mice with outlier tumor sizes (either too small or too large) were excluded from further study. The remaining animals were randomly assigned to the different treatment groups. Mice were treated with three injections, set three days apart, and were sacrificed 4 days after the final treatment administration. […] Two separate experiments were performed, the first with n=6 mice per group and the second with n=9 animals.

Data set [4] has as its system CD8+ T-cells in MC38 tumors. Nature of the data set: Flow cytometry of tumor-infiltrating CD8+ T-cells in MC38 tumors. The class given is in vivo, C57BL/6 mice. From the text: In order to address the change in the immunological landscape with treatment, we asked whether sAZD1080 could impact the immune parameters that underpin treatment efficacy for immune checkpoint blocking antibodies. These include the CD8^+ cell number, the abundance of PD-1 expression on these cells, perforin release and the generation of cancer cell death, as reflected by activated caspase 3. For the first analysis, tumor cell digests were used to assess the number of CD8^+/CD107a^+/granzyme B^+ lymphocytes by flow cytometry (14, 30). […] In order to assess the status of PD-1 expression on CD8+ cells, flow cytometry was used to assess the % of […] cells in the tumor digests (14, 31).
Tumors were harvested from MC38 mice after sacrifice. Tumors larger than 100 mm^3 were divided in two, with one half preserved for histology and the other half used to conduct flow cytometry. To prepare samples for flow cytometry, tumor chunks of 2-3 mm^3 were incubated in an enzyme cocktail (1 mg/mL collagenase type IV, 2000 U DNase type IV, 0.1 mg/mL hyaluronidase type V in 1×HBSS) for 1 hour, and the digests passed through a 70 μm nylon filter. Cells were pelleted and washed in HBSS.
Cells were diluted in cell staining buffer, pelleted by centrifuging at 350×g for 5 minutes, and washed twice. […]

SMILES strings stand for the structures.

As to `N#Cc1ccc2[nH]c(O)c(-c3ccc(CN4CCOCC4)cn3)c2c1` [AZD1080], in data set [1], the “albumin:globulin ratio” value is “depress”; the “blood chemistry panel (overall)” value was “more variation in blood chemistry”; the “total bilirubin and BUN levels” value was “reductions”. For the same compound, in data set [2], the “toxicity leading to discontinuation in phase I clinical trial” value was “nephrotoxicity”. Also, the “tolerability on dose escalation (weight loss, behavior, mortality, adverse events)” value in data set [3] is reported as “devoid of significant weight loss, abnormal behavior or posture, mortality or other adverse events”. In addition, the “number of tumor-free animals at time of sacrifice (out of 15)” value with MC38 colon cancer (MC38, three administrations, n=15 per group) is 3/15. In addition, the “tumor growth inhibition in MC38 (significance vs saline)” value in the data set on MC38 colon cancer (three administrations every three days, sAZD1080 5 mg/kg IV, free AZD1080 5 mg/kg IP, SB415286 8 mg/kg IP, anti-PD-1 4 mg/kg IP, n=15) was “no significant effect on tumor growth inhibition”. Also, in data set [4], the “% of CD8/PD-1+ cells in the tumor digests” value was “did not impact”.
